Measurements as given in ChEMBL document CHEMBL3997836, “Leupeptazin, a highly modified tripeptide isolated from cultures of a Streptomyces sp. inhibits cathepsin K” (Bioorg Med Chem Lett, 2017).

Molecular target: T1, Cathepsin K (Homo sapiens, UniProt P43235)
T1 sequence (P43235 whole entry): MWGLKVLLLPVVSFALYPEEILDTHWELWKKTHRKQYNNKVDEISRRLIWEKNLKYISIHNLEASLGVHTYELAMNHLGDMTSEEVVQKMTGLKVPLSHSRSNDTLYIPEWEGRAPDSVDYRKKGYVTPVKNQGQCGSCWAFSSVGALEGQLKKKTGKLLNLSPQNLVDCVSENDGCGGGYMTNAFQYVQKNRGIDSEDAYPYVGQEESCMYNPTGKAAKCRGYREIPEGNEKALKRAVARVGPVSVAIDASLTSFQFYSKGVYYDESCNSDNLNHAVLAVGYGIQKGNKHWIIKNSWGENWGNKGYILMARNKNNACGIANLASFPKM
Assay: Competitive inhibition of recombinant human cathepsin K expressed in Pichia pastoris using Z-FR-MCA as substrate by Dixon plot method

Row | Ki | Compound
1 | 44 µM | CC(=O)N[C@@H](CC(C)C)C(=O)N[C@@H](CC(C)C)C(=O)N[C@H]1CCCN2C(N)=NC(=N)N[C@@H]12
2 | 0.024 µM | CC(=O)N[C@@H](CC(C)C)C(=O)N[C@@H](CC(C)C)C(=O)N[C@H](C=O)CCCNC(=N)N [LEUPEPTIN]
